Values of other authors, collected in patent US20130195827A1, “NUTRIGENOMIC METHODS TO OVERCOME CARBOHYDRATE BINGEING AND OVEREATING” (priority 2011, published 2013).

Assays:
[1] = system: lipolysis; conditions: in vitro, p<0.01
[2] = system: leptin secretion

Compound	basal rate of lipolysis [1]	increase of leptin secretion [2] [%]
C[C@]12CCC(=O)C=C1CC[C@@H]1[C@@H]2[C@@H](O)C[C@@]2(C)[C@H]1CC[C@]2(O)C(=O)CO [cortisol]	significantly reduced	
Insulin: hormone insulin		25
